# Results published in the NIST ThermoML archive (doi:10.1016/j.tca.2019.178431).
# ± gives the expanded uncertainty stated by the source.
# Assays:
# [1] = Crystal; DTA
# [2] = Molar enthalpy of transition or fusion; settings: Crystal; DSC
smiles,measurement,setting,value
Clc1ccccc1C(c1ccccc1)(c1ccccc1)n1ccnc1 [1-((2-chlorophenyl)diphenylmethyl)-1H-imidazole],Normal melting temperature,[1],143.00 ± 0.4 °C
same,Molar enthalpy of transition or fusion,[2],8.36 ± 0.203 kcal/mol
